How the values were obtained:
Type in all cases: cell-based
[1] = Assay Example 3: parallel cytotoxicity assay (alamarBlue) without viral infection; details: human, Huh7.5.1 cells without viral infection, no viral infection, read-out: CC50 Value HCVcc
Method: (§1) Cells: Huh7.5.1 cells and hepatitis C virus HCVcc (GT2a, JFH-1) infection system.
(§2) Treatment of Compound: According to the assay final concentrations of the compounds in Table 6, DMSO stock solutions of the compounds were diluted and then added to a 96-well assay plate. The final concentration of DMSO was 0.5%.
(§3) Viral infection: Huh7.5.1 cells were seeded in a 96-well cell culture plate, and the cells were cultured overnight at 37° C. in an incubator with 5% CO2 for later use. The compound and the HCVcc virus solution (MOI=0.1) were simultaneously added to the cells, and the virus infection was cultured for 3 days. Parallel cytotoxicity assay was identical to the method for the inhibition of the virus but without viral infection.
Cell viability assay: Cell viability was detected by the addition of alamarBlue assay reagent. The original data (RFU) was used for the calculation of the cytotoxicity of the compounds.
The cytotoxicity of the compounds was calculated by using the equation below: Cell Viability %=CPD/CC×100%*
(§4) The cell viability percentages (Cell Viability %) and the compound activity percentages (Inhibition %) were imported into GraphPad Prism software, respectively, and curves were fitted by using nonlinear regression method to obtain the corresponding curves of the compounds, and the cytotoxicity (CC50) thereof and inhibitory activity (EC50) values against the HCV replicon thereof.

[2] = system: HCV GT1b/3a NS5A chimeric replicon; test: Assay Example 1: activity against HCV GT1b/3a NS5A chimeric replicon; details: Hepatitis C virus, Huh-7, 72 h, read-out: EC50 value GT1b/3a NS5A chimeric replicon
Method: (§5) Cells: Huh 7 cell line and HCV GT1b/3a and GT1b/6a NS5A chimeric replicons and GT1b and GT1a wild-type replicon RNA.
(§6) Treatment of Compound: According to the assay final concentrations of the compounds in Table 2, DMSO stock solutions of the compounds were diluted and then added to a 96-well assay plate. The final concentration of DMSO was 0.5%.
(§7) The preparation of cells: After replicon plasmid DNA was linearized with a corresponding restriction enzyme, the DNA was transcribed into RNA by using T7RNA polymerase. Replicon RNA prepared by transcription in vitro was transfected into Huh-7 cells by electroporation. Transfected cells were seeded at a density of 10,000 cells per well into the 96-well assay plate containing the diluted compounds, and then the plate was placed in a 37° C. incubator with 5% CO2 and cultured for 3 days.
(§8) Drug activity assay: Luminescence signal value (RLU) was detected with Envision within 15 minutes using the luciferase assay reagent Britelite plus, and the original data (RLU) was used for the calculation of the activity of the compounds.
(§9) The activity of the compounds was calculated by using the equation below: Inhibition %=(ZPE−CPD)/(ZPE−HPE)×100%*
as §4, with “(Viability” for “(Cell Viability”, “inhibition” for “compound activity”

[3] = system: HCV GT1b/5a NS5A chimeric replicon; test: Assay Example 2: activity against GT1b/5a NS5A chimeric replicon; details: Hepatitis C virus, Huh-7, 72 h, read-out: EC50 Value GT1b/5a-NS5A-wt
Method: Cells: Huh-7 cells are liver cancer cell strains (from AppTec, USA), HCV GT1a and GT1b wild type (wt) replicons, GT1b/3a, GT1b/4a, GT1b/5a and GT1b/6a NS5A chimeric replicons.
Treatment of Compound: According to the assay final concentrations of the compounds in Table 5, DMSO stock solutions of the compounds were diluted and then added to a 96-well assay plate. The final concentration of DMSO was 0.5%.
as §7, with “T7 RNA” for “T7RNA”, “then” for “then the plate was”
as §8
The cytotoxicity of the compounds was calculated by using the equation below: Cell Viability %=(CPD−HPE)/(ZPE−HPE)×100%* The activity of the compounds was calculated by using the equation below: Inhibition %=(ZPE−CPD)/(ZPE−HPE)×100%*
(§10) The cell viability percentages (Viability %) and the inhibition percentages (Inhibition %) were imported into GraphPad Prism software, respectively, and curves were fitted by using nonlinear regression method to obtain the corresponding curves of the compounds, and the cytotoxicity (CC50) thereof and the inhibitory activity (EC50) values against the HCV replicon thereof.

in vitro = details: human; Huh 7 cells with GT1b wild-type replicon, 3 days, CellTiter-Fluor
Method: as §5, §6, §7
Cell viability assay: A cell growth fluorescent titration detection reagent CellTiter-Fluor was added to the 96-well plate of the GT1b wild-type replicon. After the cells were cultured for 1 hour in a 37° C. incubator with 5% CO2, the fluorescence signal value (RFU) was detected by Envision, and the original data (RFU) was used for the calculation of the cytotoxicity of the compounds.
The cytotoxicity of the compounds was calculated by using the equation below: Cell Viability %=(CPD−HPE)/(ZPE−HPE)×100%*
as §10, with “thereof and inhibitory activity” for “thereof and the inhibitory activity”

[4] = system: hepatitis C virus HCVcc (GT2a, JFH-1); test: Assay Example 3: activity against infective hepatitis C virus HCVcc (GT2a, JFH-1); details: Huh-7.5.1, 72 h, read-out: EC50 Value GT2a HCVcc
Method: as §1, §2, §3
Drug activity assay: The activity of hRLuc was detected by the addition of Renilla luciferase assay reagent. The original data (RLU) was used for the calculation of the activity of the compounds.
The activity of the compounds was calculated by using the equation below: Inhibition %=(CPD−VC)/(CC−VC)×100%*
as §4

[5] = system: HCV GT1a wild-type replicon; test: Assay Example 6: drug resistance, activity against HCV GT1a wild-type replicon; details: Hepatitis C virus, 72 h, Huh-7 cells, transient transfection, 3 days, read-out: GT1a-wt EC50 value
Method: Cells: Huh-7 cells are liver cancer cell strains (from AppTec, USA), HCVGT1a wild-type replicon and GT1a-NS5A-Y93H and GT1a-NS5A-L31V mutant replicons
Treatment of Compound: According to the assay final concentrations of the compounds in Table 11, DMSO stock solutions of the compounds were diluted and then added to a 96-well assay plate. The final concentration of DMSO was 0.5%.
as §7, with “T7 RNA” for “T7RNA”, “then” for “then the plate was”
Compound activity assay: Luminescence signal value (RLU) was detected with Envision within 5 minutes by using the luciferase assay reagent Britelite plus, and the original data (RLU) was used for the calculation of the activity of the compounds.
The activity of the compounds was calculated by using the equation below: Inhibition %=(CPD−ZPE)/(HPE−ZPE)×100%*
The compound activity percentages (Inhibition %) were imported into GraphPad Prism software, and curves were fitted by using nonlinear regression method to obtain the corresponding curves of the compounds and the inhibitory activity (EC50) values against the HCV replicon thereof.

[6] = system: HCV GT1b wild-type replicon; test: Assay Example 1: activity against HCV GT1b wild-type replicon (luciferase, transient transfection); details: Hepatitis C virus, 72 h, Huh 7 cells, 3 days
Method: as §5, §6, §7, §8, §9
as §10, with “thereof and inhibitory activity” for “thereof and the inhibitory activity”

SMILES	CC50 at 3 days [1] [pM]	EC50 [2] [pM]	EC50 [3] [pM]	CC50 (in vitro) [pM]	EC50 [4] [pM]	EC50 [5] [pM]	EC50 [6] [pM]
COC(=O)N[C@H](C(=O)N1CCC[C@H]1C(=O)Nc1ccc([C@@H]2CC[C@@H](c3ccc(NC(=O)[C@@H]4CCCN4C(=O)[C@@H](NC(=O)OC)[C@@H](C)OC)cc3)N2c2cc(F)c(N3CC[Si](C)(C)CC3)c(F)c2)cc1)[C@@H](C)OC [Compound 1a, Methyl ((2S,2′S,3R,3′R)-((2S,2′S)-(((((2S,5S)-1-(4-(4,4-dimethylazasilinan-1-yl)-3,5-difluorophenyl)pyrrolidin-2,5-diyl)bis(4,1-phenylene))bis(azanediyl))bis(carbonyl))bis(pyrrolidin-2,1-diyl))bis(3-methoxy-1-oxobutan-1,2-diyl))dicarbamate]	> 100	3	1.62	> 100	–	–	–
COC(=O)N[C@H](C(=O)N1CCC[C@H]1C(=O)Nc1ccc([C@H]2CC[C@H](c3ccc4nc([C@@H]5CCCN5C(=O)[C@@H](NC(=O)OC)[C@@H](C)OC)[nH]c4c3)N2c2cc(F)c(N3CC[Si](C)(C)CC3)c(F)c2)cc1)[C@@H](C)OC [Compound 6b]	> 100	2.4	4.32	> 100	1.37	2.2	6.7
